Source: patent US7045298B2, “Method for identifying or screening agonist and antagonist to PPAR” (Tanabe Seiyaku Co., Ltd., priority 1997, dated 2006)

Columns and labels:
[1] = biological target: T1, ligand-dependent interaction between PPARγ and CBP (Homo sapiens, UniProt P37231); assay: Yeast two-hybrid detection of ligand-dependent interaction between PPARγ and CBP (β-galactosidase reporter); type: cell-based; conditions: for β-galactosidase activity (lacZ gene expression): yeast SFY526 containing both plasmids pGBT9-PPARγ2 and pGAD424-CBP, substance added at 10^−6M (FIG. 2A/3A), cultivation 4 to 5 hours; for concentration dependence of the increase in β-galactosidase activity: yeast containing both plasmids, varying concentrations of substance (FIG. 2B/3B)
T1 construct: expressed in transfected cells; host or cells: yeast cell strain SFY526 (Clontech), transformed with pGBT9-PPARγ2 and pGAD424-CBP
T1 sequence (P37231 182-505): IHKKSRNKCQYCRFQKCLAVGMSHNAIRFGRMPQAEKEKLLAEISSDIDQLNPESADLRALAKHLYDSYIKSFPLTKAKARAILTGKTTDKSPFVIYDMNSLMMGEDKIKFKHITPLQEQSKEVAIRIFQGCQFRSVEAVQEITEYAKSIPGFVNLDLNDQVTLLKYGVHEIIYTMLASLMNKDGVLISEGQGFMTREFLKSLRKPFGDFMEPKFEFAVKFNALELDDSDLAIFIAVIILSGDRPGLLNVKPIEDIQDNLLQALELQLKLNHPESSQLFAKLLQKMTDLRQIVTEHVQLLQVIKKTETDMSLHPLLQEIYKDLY
T1 sequence (P45481 1-464 partner): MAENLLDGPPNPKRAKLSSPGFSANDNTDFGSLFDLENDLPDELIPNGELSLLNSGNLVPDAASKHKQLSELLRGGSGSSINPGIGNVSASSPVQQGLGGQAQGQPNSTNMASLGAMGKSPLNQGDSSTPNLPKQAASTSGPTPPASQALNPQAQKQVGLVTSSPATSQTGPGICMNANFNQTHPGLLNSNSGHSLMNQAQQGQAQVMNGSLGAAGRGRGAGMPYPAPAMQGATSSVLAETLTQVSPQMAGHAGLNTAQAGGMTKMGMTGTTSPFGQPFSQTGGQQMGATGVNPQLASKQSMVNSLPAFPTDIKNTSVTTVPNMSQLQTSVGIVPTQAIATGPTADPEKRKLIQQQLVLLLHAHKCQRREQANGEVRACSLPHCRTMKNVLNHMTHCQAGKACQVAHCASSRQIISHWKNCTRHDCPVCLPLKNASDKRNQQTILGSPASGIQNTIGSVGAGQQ
Source text: The 1574 base pair fragment containing PPARγ2 gene obtained in (1) above was cleaved at the XhoI recognition site designed at the terminus and the BamHI recognition site in the base sequence. The fragments obtained were inserted into the BamHI-SalI site of yeast expression vector pGBT9 (available from Clontech Co., vector for yeast two hybrid system) containing the gene of the DNA binding domain of transcription factor GAL4 (No. 1 to 147 amino acid residues of GAL4). As a result, plasmid pGBT9-PPARγ2 (FIG. 1A) for expressing a fused protein comprising the portion downstream of the No. 181 amino acid residue of human PPARγ2 (ligand binding domain) and the DNA binding domain of GAL4 was obtained. In FIG. 1A, GAL4 bd stands for a GAL4 DNA binding domain sequence, ^PADH1 stands for alcohol dehydrogenase gene promoter, ^TADH1 stands for an alcohol dehydrogenase gene terminator, Amp^r stands for an ampicillin resistant gene, ColE1 ori stands for a collicin E1 replication start point, and 2 μ ori stands for a 2 μ replication start point.
The 1411 base pair fragment containing CBP gene obtained in (1) above (N-terminal domain) was cleaved at the BamHI recognition site and BglII recognition site designed at the termini. The fragments obtained were inserted into the BamHI-BglII site of yeast expression vector pGAD424 (available from Clontech Co., vector for yeast two hybrid system) containing the gene of the transcriptional activation domain of GAL4 (No. 768 to 881 amino acid residues of GAL4). As a result, plasmid pGAD424-CBP (FIG. 1B) for expressing a fused protein comprising the portion of the No. 1 to 464 amino acid residues of mouse CBP (N-terminal domain) and the transcriptional activation domain of GAL4 was obtained. In FIG. 1B, GAL4 ad stands for GAL4 transcriptional activation domain sequence and others have the same meanings as in FIG. 1A.
Using yeast cell strain SFY526 (available from Clontech Co.), the fused protein expression plasmids pGBT9-PPARγ2 and pGAD424-CBP obtained in (2) and (3) above were introduced therein. The cell strain SFY526 (genotype was MATa, ura3-52, his3-200, ade2-101, lys2-801, trp1-901, leu2-3, 112, canr, gal4-542, gal80-538, URA3::GAL1-lacZ) had incorporated in the chromosome a fused gene of GAL1 and lacZ and is a cell strain having deletion mutation relative to GAL4 gene (Bartel et al., Bio Techniques, vol. 14, pp. 920–924, 1993). The transformation was performed by the lithium acetate method and incubated in a synthetic medium depleted of tryptophan and leucine which are selection markers for the respective plasmids to perform screening to obtain a transformant in which only one of the plasmids was introduced and a transformant in which the both plasmids were introduced.
The yeast transformant containing both of the plasmids pGBT9-PPARγ and pGAD424-CBP or the yeast transformant containing only one of the plasmids was cultivated in YPD medium (liquid medium). Upon cultivation, 15-deoxy-Δ^12,14-prostaglandin J2, which is a ligand of PPARγ2 in a living body, diluted with YPD medium was added (or not added). 15-deoxy-Δ^12,14-prostaglandin J2 (hereinafter abbreviated to as “15d-PGJ2”) used was commercially available (available from CAYMAN CHEMICALS, CO., U.S.A.). The cultivation was performed for 4 to 5 hours. After the cultivation, the yeast cells were recovered by centrifugation and β-galactosidase activity was measured. […]

KK-Ay mouse = conditions: Japanese Provisional Patent Publications No. 56675/1989 and No. 167225/1990; cited from earlier work

Structure (SMILES) | β-galactosidase activity (lacZ gene expression) [1] | concentration dependence of the increase in β-galactosidase activity [1] | identification as agonist for PPARγ ([1]; conclusion from ligand-dependent PPARγ-CBP interaction in yeast two-hybrid system) | hypoglycemic effect (KK-Ay mouse)
CCCCC/C=C/C=C1/C(=O)C=C[C@@H]1C/C=C\CCCC(=O)O [15d-PGJ2, 15-deoxy-Δ^12,14-prostaglandin J2] | an increase in β-galactosidase activity | dependent on the concentration of 15d-PGJ2 |  | 
O=C1NC(=O)C(Cc2ccc3oc(Cc4ccc5ccccc5c4)nc3c2)S1 (stereo not drawn) [T-174, 5-[[2-(2-naphthalenylmethyl)-5-benzoxazolyl]methyl]-2,4-thiazolidinedione] | an increase in β-galactosidase activity was observed only in the yeast containing both of the plasmids | dependent on the concentration of T-174 | identified as an agonist acting as a ligand to PPARγ | hypoglycemic effect
